This test deals with PMA-induced release of HB-EGF from PBMCs from healthy donors. As to the kind of experiment: ELISA-based HB-EGF release assay, PBMCs from healthy donors. It is filed as cell-based. The settings on record: Homo sapiens, PBMC; recombinant murine antibodies 1 μg/ml; Batimastat 10 μM; PMA 25 ng/ml, 6 hours. The protocol:
In the following study, ELISA-based HB-EGF release assays were performed to analyze the inhibitory effects of the antibodies of the present disclosure on PMA-induced release of endogenous HB-EGF from primary human material obtained from healthy donors using peripheral blood mononuclear cells (PBMCs).
In brief, on day 1, Nunc black MaxiSorp® 96-well plates (Thermo Fisher Scientific, USA) were coated overnight with 100 μl per well of mouse anti-human HB-EGF capture antibody (provided as part of the DuoSet ELISA kit) at 4 μg/ml TBS at 4° C. On day 2, the capture antibody solution was removed and MaxiSorp® plates were blocked with 300 μl per well of TBS, 1% BSA at room temperature for 3 hours. […] Using an infinite M1000 (Tecan Group, Switzerland) microplate reader, the fluorescence of each well was collected at an excitation wavelength of 435 nm and an emission wavelength of 555 nm.
In general terms: In an ELISA, binding on a coated surface is turned into a signal by an enzyme label.

Turning to `CNC(=O)[C@H](Cc1ccccc1)NC(=O)[C@H](CC(C)C)[C@H](CSc1cccs1)C(=O)NO` [Batimastat], the inhibition at 10 µM is 94.9%.

For orientation: inhibition means how much of the control response was suppressed.

The record behind these values is US20240174744A1, “METHODS OF TREATMENT USING PROTEIN BINDERS TO IRHOM2 EPITOPES” (SCIRHOM GMBH, priority 2021, published 2024).
